For data set [1], the system named is C. neoformans H99S (serotype A lab strain). The experiment in a line: Minimum inhibitory concentration (MIC) testing, CLSI broth dilution, PrestoBlue viability. The class given is cell-based, Cryptococcus neoformans. As for the experimental part: The minimum inhibitory concentration (MIC) was determined against C. neoformans H99S (serotype A lab strain) as previously described. (Corson, et al. ACS Med. Chem. Lett. 2016, 7(12).) All MIC assays were carried out following CLSI guidelines. (CLSI. Reference method for broth dilution antifungal susceptibility testing of yeasts; approved standard-third edition; CLSI document M27-A3; Clinical and Laboratory Standards Institute: Wayne, Pa.) Briefly, the organism to be tested was streaked from frozen stock for isolation and incubated for 96 hours. A 5 mL solution of 0.85% saline was inoculated with 1-2 colonies of the organism of interest, and the inoculated solution was vortexed for one minute. The optical density at 530 nanometers (nm) was acquired on a spectrophotometer and adjusted through addition of saline or cells to obtain an OD530nm of 0.15 to 0.25. A 1:100 solution of Roswell Park Memorial Institute (RPMI) media containing 3-morpholinopropane sulfonic acid (MOPS; 0.1 M) and cells was made by adding 0.100 mL of saline inoculated with cells to 9.9 mL of RMPI. The solution was vortexed and used to make a 1:20 solution by adding and vortexing 0.5 mL of the 1:100 solution to 9.5 mL of RPMI+0.1 M MOPS. (This was repeated twice to make a total of 20 mL of 1:20 RPMI+ cells.)
Two-fold serial dilutions of peptoid were prepared in water at 100 times the concentration to be tested. In a 96-well plate, 198 μL of 1:20 RPMI+cells was placed in each well followed by 2 μL of 100-times compound or vehicle control in triplicate. The plate was incubated at 35° C. for 72 hours. For viability analysis, 20 μL of PrestoBlue was added to each well, the plate incubated for 8 hours, and the fluorescent intensity of each well measured (Ex. 555 nm; Em. 585 nm). All triplicate assays were repeated twice on different days.
On the technique in general: Broth dilution looks for growth in wells or tubes with falling amounts of substance.

In data set [2] the test system is HepG2 hepatocarcinoma cells. Kind of data set: Mammalian cytotoxicity testing (MTT), HepG2. The class given is cell-based. The note with it: for toxicity dose 50% (TD50), HepG2: sarcosine scan. As for the experimental part: (§1) NIH/3T3 mouse fibroblasts and HepG2 hepatocarcinoma cells, cells were grown in DMEM containing 10% FBS at 37° C. and 5% CO2 atmosphere. For cytotoxicity testing, cells were seeded into 96-well plates in phenol red free DMEM containing 10% FBS and incubated for 2 hours to allow cell attachment. Cells were then treated with varying concentrations of peptoid or vehicle control. After 72 hours incubation, 3-(4,5-dimethylthiazol-2-yl)-2,5-diphenyltetrazolium bromide (MTT; 20 μL; 5 mg/mL) was added to each well and the plate incubated for 3.5 hours. Media was removed from each well and 100 μL of DMSO was added and the plate incubated at 37° C. for 10 minutes. The absorbance at 570 nm was then read on a spectrophotometer, percent inhibition determined, and TD50 calculated using GraFit. All triplicate assays were repeated twice on different days.

For data set [3] the following is noted: Corson et al. 2016; cited from earlier work.
Data set [4] has as its system NIH/3T3 mouse fibroblasts. Kind of data set: Mammalian cytotoxicity testing (MTT), NIH/3T3. The class given is cell-based. As for the experimental part:
as §1, with “For” for “NIH/3T3 mouse fibroblasts and HepG2 hepatocarcinoma cells, cells were grown in DMEM containing 10% FBS at 37° C. and 5% CO2 atmosphere. For”

Data set [5] has as its system human red blood cells (hRBCs). Kind of data set: Hemolytic activity against human red blood cells. The format is cell-based. The note with it: human erythrocytes, HC10. As for the experimental part: The hemolytic activity of peptoids against human red blood cells (hRBCs) was done as previously described. (Murugan et al. Bioorg. Med. Chem. Lett. 2013, 23(16), 4633-4636.) Briefly, hRBCs were washed 3× with PBS (11.8 mM phosphate; 140.4 mM NaCl; pH 7.4) by centrifugation (10 minutes at 1000×g). Cells were resuspended in PBS and 100 μL aliquots placed into individual wells of a 96-well plate. Peptoid solutions (2-fold serial dilution in PBS; 400-3.13 μg/mL final) were added to the wells. A negative control was prepared by adding PBS with no peptoid to the hRBCs and a positive control was prepared by adding 1% Triton X-100 to the hRBCs. The plate was incubated at 37° C. for 1 hour, centrifuged at 1000×g for 10 minutes, and 5 μL of supernatant transferred into 95 μL of PBS in a new 96-well plate. Released hemoglobin was measured by reading the absorbance at 405 nm on a spectrophotometer. All triplicate assays were repeated twice on different days. Percent hemolysis was calculated as follows:
[formula] The Hill Slope (H) and HC50 was determined using GraFit and HC10 was calculated from HC50 using the following equation: HC10=HC50[10%/(100%−10%)]^1/H NMR Analysis

[6] abbreviates: C. neoformans MIC, relative to AEC5.

Turning to `CCCCCCCCCCCCCNCC(=O)N(C)CC(=O)N(CC(N)=O)Cc1ccco1` [AEC5sar2], the “fold decrease in antifungal potency compared to AEC5” value in data set [1] (setting [6]) is recorded as 2 fold. Moreover, the “fold change of toxicity dose 50% (TD50) compared to AEC5” value in data set [2] (HepG2, relative to AEC5, printed as increased) is reported as 2 fold. Also, in data set [2], the “toxicity dose 50% (TD50), HepG2” value is 21.1 m/mL.
In the case of `CCCCCCCCCCCCCNCC(=O)N(CCCCN)CC(=O)N(CC(N)=O)Cc1ccco1` [AEC5, reference compound], the “in vitro proteolytic stability” value in data set [3] is recorded as “excellent”. The “TD50 against HepG2 liver cells” value in data set [2] (72 hours incubation, MTT) came to 56.2 µg/mL. In data set [2], the “toxicity dose 50% (TD50), HepG2” value came out at 56.2 m/mL.
With `CCCCCCCCCCCCCNCC(=O)N(CCCCN)CC(=O)N(CC(N)=O)Cc1cccs1` [γ-2], in data set [1] (setting [6]), the “fold improvement in antifungal potency compared to AEC5” value is recorded as 2 fold. Moreover, in data set [1] (Cryptococcus neoformans, read-out: MIC against C. neoformans), the MIC (in general, the least concentration at which growth counts as inhibited) is < 3.5 µg/mL. Further, the “toxicity towards NIH/3T3 mouse fibroblasts compared to AEC5” value in data set [4] was “decreased toxicity”. In data set [4] (NIH/3T3 toxicity and C. neoformans MIC), the “selectivity ratio, NIH/3T3 mouse fibroblasts” value came out at 21. Moreover, the “level of hemolysis compared to AEC5” value in data set [5] is “slightly higher levels of hemolysis”. For the same compound, the “selectivity ratio (TD50/MIC)” value in data set [2] (HepG2 TD50 and C. neoformans MIC) worked out at 25.3.
With `CCCCCCCCCCCCCNCC(=O)N(CCCCN)CC(=O)N(C)CC(N)=O` [AEC5sar3], in data set [1] (setting [6]), the “fold decrease in antifungal potency compared to AEC5” value is 8 fold. Besides, the “change of mammalian cell toxicity compared to AEC5” value in data set [2] (HepG2) is “little effect on mammalian toxicity”.
`CNCC(=O)N(CCCCN)CC(=O)N(CC(N)=O)Cc1ccco1` [AEC5sar1]: the “antifungal potency (MIC), above highest concentration tested” value in data set [1] (sarcosine scan) is reported as > 400 m/mL. Also, the “toxicity dose 50% (TD50), HepG2” value in data set [2] is > 800 m/mL.

The values are drawn from patent US11369586B2, “Antifungal peptoids” (MIDDLE TENNESSEE STATE UNIVERSITY, priority 2018, dated 2022).
